Data on 6 compounds can be found in the NIST ThermoML archive (doi:10.1021/je901065e).

What is called mass density is mass per unit of volume.

Numbers after ± are expanded uncertainties.

The conditions of this data set: 298.15 K; 101.33 kPa; Liquid.
Turning to `c1ccccc1` [benzene], the mass density was determined as 873.4 ± 0.5 kg/m3. Consider `CCCC[n+]1ccccc1.F[B-](F)(F)F` [1-butylpyridinium tetrafluoroborate], for which the mass density is reported as 1214 ± 1 kg/m3.

As for `CCCCCC[n+]1ccccc1.F[B-](F)(F)F` [1-hexylpyridinium tetrafluoroborate], the mass density was 1154.8 ± 0.8 kg/m3. Take `CCCC[n+]1ccc(C)cc1.F[B-](F)(F)F` [1-butyl-4-methylpyridinium tetrafluoroborate]: the mass density was determined as 1183.1 ± 0.9 kg/m3.

For the compound `Cc1ccccc1` [toluene], the mass density amounted to 862.27 ± 0.53 kg/m3. On to `CCCC[n+]1ccccc1C.F[B-](F)(F)F` [1-butyl-2-methylpyridinium tetrafluoroborate], for which the mass density worked out at 1202.5 ± 1 kg/m3.
